Earlier results as cited in PMC7584476, “Safety and efficacy of BAY1436032 in IDH1-mutant AML: phase I study results” (Leukemia, 2020).

How the values were obtained:
[1] = test system: primary AML samples; conditions: cited from earlier work
[2] = test system: mIDH2; conditions: preclinical; cited from earlier work
[3] = test system: wtIDH2; conditions: preclinical; cited from earlier work

## C[C@H]1C[C@@H](n2c(Nc3ccc(OC(F)(F)F)cc3)nc3cc(CCC(=O)O)ccc32)CC(C)(C)C1 [BAY1436032]
[1]
  Number of colony-forming cells: decreased
[2]
  Inhibitory activity towards mIDH2: little or no inhibitory activity
[3]
  Activity against wtIDH2: little activity
